A short description of the data set: Measurement of the concentration of astaxanthin dissolved at room temperature. It counts as physicochemical.

Each structure is given as a SMILES string.

For the compound `CC1=C(/C=C/C(C)=C/C=C/C(C)=C/C=C/C=C(C)/C=C/C=C(C)/C=C/C2=C(C)C(=O)[C@@H](O)CC2(C)C)C(C)(C)C[C@H](O)C1=O` [astaxanthin], the Concentration dissolved runs as follows: (solvent 1,4-dioxane (Ethers), room temperature) 0.3 % (wt./wt.); (solvent Acetone (Ketones), room temperature) 0.02 % (wt./wt.); (solvent Benzene (Hydrocarbons), room temperature) 0.05 % (wt./wt.); (solvent Chloroform (Halogens), room temperature) 0.7 % (wt./wt.); (solvent Cyclohexane (Hydrocarbons), room temperature) 0.001 % (wt./wt.); (solvent Cyclohexanone (Ketones), room temperature) 0.2 % (wt./wt.). The Concentration dissolved is listed as 2.3 % (wt./wt.) (solvent Dichloromethane (Halogens), room temperature); 0.002 % (wt./wt.) (solvent Ethanol (Alcohols), room temperature); 0.003 % (wt./wt.) (solvent Hexane (Hydrocarbons), room temperature); 0.002 % (wt./wt.) (solvent Isopropanol (Alcohols), room temperature); 0.003 % (wt./wt.) (solvent Methanol (Alcohols), room temperature); 0.03 % (wt./wt.) (solvent Methylethylketone (Ketones), room temperature). Besides, the Concentration dissolved runs as follows: (solvent Methylisobutylketone (Ketones), room temperature) 0.02 % (wt./wt.); (solvent Tetrahydrofuran (Ethers), room temperature) 0.7 % (wt./wt.); (solvent Toluene (Hydrocarbons), room temperature) 0.03 % (wt./wt.); (solvents other than halogen solvents, room temperature (summary of Table 1)) at most 1%.
